Laboratory results from article PMC10470178, “Long-acting lenacapavir protects macaques against intravenous challenge with simian-tropic HIV” (eBioMedicine, 2023).

Legend:
[1] = system: stHIV-A19; assay: PrEP protection from high-dose intravenous stHIV-A19 challenge in pigtail macaques; type: in vivo, pigtail macaques (Macaca nemestrina)
Description: Sixteen male, purpose-bred pigtail macaques (Macaca nemestrina; ages 4.6–8.5 years at the time of study initiation) were housed at NIH-Bethesda (Supplementary Table S1). All study animals received enrofloxacin (10 mg/kg, administered orally, once per day for 10 days), paromomycin (25 mg/kg, administered orally, twice daily for 7–10 days), and fenbendazole (50 mg/kg administered orally, once per day for 5 days) two weeks to 43 months prior to study initiation. Lenacapavir or drug vehicle (sterile, preservative-free 57.5% w/v polyethylene glycol 300 in water) doses were administered to sedated animals via SC injection into the scapular region such that no more than 2 ml of solution was injected into a single SC site. Animals in the LEN pharmacokinetic evaluation study (N = 6) each received two doses of LEN, both at 15 mg/kg (N = 3) or at 50 mg/kg (N = 3), 6 weeks apart. Animals in the virus challenge experiment each received a single dose of LEN at 25 mg/kg (N = 3, LEN PrEP group) or drug vehicle (N = 4, vehicle control group) 30 days prior to stHIV-A19 challenge, or a cART regimen consisting of tenofovir disoproxil fumarate (TDF), emtricitabine (FTC), and dolutegravir (DTG) (N = 3, TDF/FTC/DTG group), coformulated and administered as previously described[29]^,[30] for 7 days beginning 3 days prior to stHIV-A19 challenge (Supplementary Figure S1). Hair was clipped and skin marked at LEN and vehicle injection sites to allow for subsequent visual and manual assessment and scoring of potential ISRs by non-blinded veterinary care staff. Complete blood counts (CBC) and serum chemistries were monitored prior to and at 2- to 4-week intervals after LEN administration for at least one year. Following the first dose of LEN in the PK study, one animal in the 50-mg/kg dosing group received 7 consecutive days of daily ketoprofen (2 mg/kg) administered intramuscularly for ISR analgesia at veterinary discretion. For the second dose of LEN in the PK study, all animals in the 50-mg/kg dosing group received 5–7 consecutive days of twice daily oral carprofen (2 mg/kg) analgesia administered prophylactically starting on the day of LEN dosing. In the IV challenge PrEP study, all LEN and vehicle control animals received 3–5 consecutive days of twice daily oral carprofen (2 mg/kg) analgesia administered prophylactically starting on the day of injection. For virus challenge, PrEP study animals each received 1 × 10^5 infectious units of stHIV-A19 injected intravenously. After LEN washout, LEN PrEP group animals received a single 50-mg/kg dose of rhesusized depleting anti-CD8α antibody (MT807R1, RRID: AB_2716320, NIH Nonhuman Primate Reagent Resource), administered SC to anesthetized animals.
Simian-tropic HIV was isolated from clarified PTM plasma by centrifugation (21,000×g for 1 h), and the resultant pellet was extracted as described.[31] Pigtail macaque PBMCs were subjected to nucleic acid extraction essentially as previously described for tissues.[32] HIV gag DNA and RNA copies were assessed using a multiplexed qPCR assay, as previously described.[33] Plasma stHIV-A19 vRNA levels are reported as copies/ml of plasma. PBMC-associated stHIV-A19 vDNA levels are reported as copies/10^6 cell equivalents, based on 2 copies of the CCR5 gene per diploid cellular genome.[34]
Plasma specimens collected from all 10 virus challenge animals prior to and at 8 weeks after stHIV-A19 challenge were evaluated for the presence of antibodies specific for HIV-1 by Western blot analysis using the GS HIV-1 Western Blot kit (Bio-Rad, cat #32508) according to the manufacturer’s instructions.
Statistical analyses were performed using R v4.1.1 ((R Core Team, 2021). R: A language and environment for statistical computing. R Foundation for Statistical Computing, Vienna, Austria. URL https://www.R-project.org/). […]

[2] = system: SHIVs; parameters: method as in PMID 34875675; conditions: SHIVs contain SIV CA derived from SIVmac239; cited from earlier work
[3] = Equilibrium dialysis shift assay in PTM plasma; type: in vitro ADME, pigtail macaque; conditions: competitive equilibrium dialysis, LEN 2 μM in 10% PTM plasma, 4 donors, 24 h, 37 °C
Description: The protein shift ratio for LEN in PTM plasma was determined by competitive equilibrium dialysis. Lenacapavir (2 μM) was spiked into 10% PTM plasma from each of 4 individual donors (3 males and 1 female) and then placed in triplicate into one side of assembled dialysis cells (Harvard Apparatus), followed by the addition of RPMI cell culture medium containing 10% foetal bovine serum to the opposite side of each cell. After a 24-h equilibration period at 37 °C, plasma and cell culture medium samples were collected and individually mixed 1:1 with the reciprocal blank matrix. Samples were then deproteinated following the addition of acetonitrile (1:4 ratio, respectively) containing 50 ng/ml warfarin and 50 ng/ml ritonavir as an internal standard and analysed using a liquid chromatography with tandem mass spectrometry (LC-MS/MS) method utilizing a SciEx API 4000 triple quadrupole mass spectrometer equipped with a Shimadzu Nexera UPLC system. The mean plasma protein binding-adjusted shift for LEN in 100% PTM plasma obtained from 4 independent experiments, each using a single PTM plasma donor performed in triplicate, was then calculated using a non-linear equation.

[4] = all 3 LEN PrEP animals, 34 days of monitoring after anti-CD8α antibody at 419 days post-challenge

CC(C)(C#Cc1ccc(-c2ccc(Cl)c3c(NS(C)(=O)=O)nn(CC(F)(F)F)c23)c([C@H](Cc2cc(F)cc(F)c2)NC(=O)Cn2nc(C(F)(F)F)c3c2C(F)(F)[C@@H]2C[C@H]32)n1)S(C)(=O)=O [LEN, Lenacapavir]
PBMC vDNA following CD8 depletion [1, 4]: 6.2–11.0 vDNA copies/10^6 PBMC
plasma vRNA following CD8 depletion [1, 4]: < 2.8 vRNA copies/ml plasma
cell-associated viral DNA (CA-vDNA) in PBMC after stHIV-A19 challenge ([1]; all animals of the group, any time point): vDNA was not detected at any time point
plasma vRNA after stHIV-A19 challenge ([1]; assay threshold 2.8 vRNA copies/ml, LEN ∼370 days follow-up, TDF/FTC/DTG through 120 days post-challenge): no plasma vRNA detected at any time point
infection rates compared with vehicle control group ([1]; each p < 0.03, Fisher's exact test): significantly lower than in the vehicle control group
HIV-1 Western blot serology ([1]; plasma, 8 weeks after stHIV-A19 challenge, all animals): remained seronegative
protection from infection after stHIV-A19 challenge ([1]; single IV challenge 1 × 10^5 i.u., LEN 25 mg/kg SC 30 days before (N = 3), 3-drug regimen daily SC for 7 days from 3 days before (N = 3)): protected PTMs from infection
reduced sensitivity of SHIVs compared with HIV-1 [2]: 5–8 fold
projected reduction of antiviral potency in 100% PTM plasma vs complete cell culture media (protein shift) [3]: 9.7 fold
